According to PubChem BioAssay (NCI):
Where “and” joins values, the source holds several entries; their conditions need not be identical. Equal entries are not always repeated.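 Step 1: Grow cells in 96-well plates. Step 2: Expose to compound for 48 hours at 5 concentrations. Step 3: Interpolate endpoints linearly; if unreached, use highest concentration. Here, GI50 denotes the concentration required for 50% inhibition of growth. Definition used: TGI = concentration required for complete inhibition of growth.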

Legend:
Assay in all cases: inhibition of tumour cell growth, NCI panel, 48 h
NCI-H522 lung = test system: NCI-H522 lung
HOP-92 NSCLC = test system: HOP-92 NSCLC
CAKI-1 renal = test system: CAKI-1 renal
SN12C renal = test system: SN12C renal
DU-145 prostate = test system: DU-145 prostate
T-47D breast = test system: T-47D breast
TK-10 renal = test system: TK-10 renal
ACHN renal = test system: ACHN renal
HL-60(TB) leukemia = test system: HL-60(TB) leukemia
A498 renal = test system: A498 renal

Row | SMILES | TGI (NCI-H522 lung) [µM] | TGI (HOP-92 NSCLC) [µM] | TGI (CAKI-1 renal) [µM] | TGI (SN12C renal) [µM] | TGI (DU-145 prostate) [µM] | TGI (T-47D breast) [µM] | TGI (TK-10 renal) [µM] | TGI (ACHN renal) [µM] | TGI (HL-60(TB) leukemia) [µM] | TGI (A498 renal) [µM] | GI50 (NCI-H522 lung) | GI50 (HOP-92 NSCLC) | GI50 (CAKI-1 renal) [µM] | GI50 (SN12C renal) [µM] | GI50 (DU-145 prostate) [µM] | GI50 (T-47D breast) [µM] | GI50 (TK-10 renal) [µM] | GI50 (ACHN renal) [µM] | GI50 (HL-60(TB) leukemia) [µM] | GI50 (A498 renal) [µM]
1 | CCCCn1cnc2c(c(CC#N)nn2-c2ccccc2)c1=N | > 100 | > 100 | > 100 | > 100 | > 100 | > 100 | > 100 | > 100 | > 100 | 91.6 |  |  |  |  |  |  |  |  |  | 
2 | CCCCNC(=S)N/N=C/c1cccc(C)n1 | 41.8 | 86.7 | 87.8 | > 100 | > 100 | > 100 | 97.6 | 68 | > 100 | > 100 |  |  |  |  |  |  |  |  |  | 
3 | CN(Cc1ccccc1)c1cc(=O)n(C)c(=O)[nH]1 | > 100 | > 100 | > 100 | > 100 | > 100 | > 100 | > 100 | > 100 | > 100 | > 100 |  |  |  |  |  |  |  |  |  | 
4 | C/C1=C\CC[C@@]2(C)O[C@@H]2C[C@@H](C2(C)CO2)CC/C(C)=C/CC1 (stereo partly specified) | 52.6 | > 100 | 39.9 | 33.5 | 48.8 | 78.3 | 32.5 | 35.1 | 71.9 | > 100 |  |  |  |  |  |  |  |  |  | 
5 | CC(=O)O[C@H]1C(=O)[C@@]2(C)[C@H]([C@H](OC(=O)c3ccc(F)cc3)[C@]3(O)C[C@H](OC(=O)[C@H](O)[C@@H](NC(=O)c4ccccc4)c4ccccc4)C(C)=C1C3(C)C)[C@]1(OC(C)=O)CO[C@@H]1C[C@@H]2O | 0.585 | > 25 | > 25 | > 25 | 2.31 | > 9.63 | > 16.1 | > 25 | 0.0149 | > 6.73 |  |  |  |  |  |  |  |  |  | 
6 | COc1ccc(-c2c3c([nH]c(=S)c2C#N)CC(C)(C)CC3=O)cc1 | > 100 | > 100 | > 100 | > 100 | > 100 | > 100 | > 100 | > 100 | > 100 | > 100 |  |  |  |  |  |  |  |  |  | 
7 | O=C(Oc1cc(=O)c(OC(=O)c2ccccc2)co1)c1ccccc1 | > 100 | > 100 | > 100 | > 100 | > 100 | > 100 | > 100 | > 100 | > 100 | > 100 |  |  |  |  |  |  |  |  |  | 
8 | COc1cc2nc(-c3cccs3)oc(=O)c2cc1OC | > 100 | > 100 | > 100 | > 100 | > 100 | > 100 | > 100 | > 100 | > 100 | > 100 |  |  |  |  |  |  |  |  |  | 
9 | O=c1ccn(C2OC(CO)C(P(=O)(O)O)C2O)c(=O)[nH]1 (stereo unspecified) | > 100 | > 100 | > 100 | > 100 | > 100 | > 100 | > 100 | > 100 | > 100 | > 100 |  |  |  |  |  |  |  |  |  | 
10 | Nc1nc(Cl)cc(NCC2(CO)CCC(CCc3ccccc3)C2)n1 (stereo unspecified) | 25.6 | 33.4 | 30.2 | 31.1 | 30.2 | 30.6 | 48.9 | 29.9 | 33.1 | 26.8 |  |  |  |  |  |  |  |  |  | 
11 | COc1cc(-c2cc(=O)c3cc4c(=O)cc(-c5cc(OC)c(OC)c(OC)c5)oc4cc3o2)cc(OC)c1OC | > 85.8 | 43.3 | > 31.6 | > 100 | > 100 | > 100 | 42.5 | > 85.1 | > 100 | 65.6 |  |  |  |  |  |  |  |  |  | 
12 | C[C@@H](Cl)[C@H]1CCCN(Cc2ccc(Br)cc2)C1 | > 12.5 | > 12.5 | > 12.5 |  | > 12.5 | > 12.5 | > 12.5 | > 12.5 | > 12.5 | > 12.5 |  |  |  |  |  |  |  |  |  | 
13 | COc1cc2cc(Oc3ccc(NC(=O)c4cc(C(F)(F)F)cc(C(F)(F)F)c4)cc3)c(C)nc2cc1OC | > 50 | > 50 | > 50 | > 50 | > 50 | > 50 | > 50 | > 50 | > 50 | > 50 | 2.01 µM | 1.82 µM | 1.5 | 3.49 | 4.78 | 2.24 | 3.82 | 2.27 | 3.51 | 1.13
14 | COc1nc2ncc([C@@H](OC(C)=O)[C@@H](COC(C)=O)OC(C)=O)nc2c(=O)[nH]1 | > 100 | > 100 | > 100 | > 100 | > 100 | > 100 | > 100 | > 100 | > 100 | > 100 | > 100 µM and 41.7 µM | > 100 µM and 32.8 µM |  |  |  |  |  |  |  | 
15 | COC(=O)c1cc2c(cc1CC1Cc3cc4c(cc3C1)CCC4)CCC2 | 80 | 98.9 | > 100 | > 100 | > 100 | > 100 | > 100 | > 100 | 32.7 | > 100 |  |  |  |  |  |  |  |  |  | 
